Converted amounts (≈) assume the structure as drawn.
How the values were obtained:
[1] = Hemolytic activity; format: cell-based; settings: human erythrocyte suspension, human erythrocytes, 37 °C
Method: The hemolytic activity of the compounds was estimated by comparing the optical density of a solution containing a compound being tested and the blood with the optical density of the blood upon 100% hemolysis. A 10% suspension of human erythrocytes was used as an object of investigation; an erythrocytic mass with heparin was washed three times with a physiologic saline (0.9% NaCl) solution, centrifuged for 10 min at 800× g, and resuspended in the physiologic saline (0.9% NaCl) solution to a concentration of 10%. The concentrations of the compounds that corresponded to the MIC for the bacterial test strains were prepared in a physiologic saline (0.9% NaCl) solution (supplemented with 5% DMSO), and 4.5 mL of a compound at the corresponding dilution was added to 0.5 mL of a 10% suspension of erythrocytes. Samples were incubated for 1 h at 37 °C and centrifuged for 10 min at 2000× g. The release of hemoglobin was controlled by measuring the optical density of the supernatant on an AP-101 digital photoelectrocolorimeter (Apel, Kawaguchi, Japan) at 540 nm. Simultaneously, control samples were prepared: controls for zero hemolysis (blank): 0.5 mL of a 10% suspension of erythrocytes was added to a physiologic saline (0.9% NaCl) solution; 100% hemolysis: 0.5 mL of a 10% suspension of erythrocytes was added to 4.5 mL of distilled water. The experiments were repeated three times and data are presented as the mean ± standard deviation.

[2] = UV spectroscopy (absorption at 500 nm), critical aggregation concentration; format: physicochemical; settings: water solution; GCR-2 in the presence of two-fold excess of MG
Method: Consequently, there is a chance that GCR-1 aggregates form not only by hydrogen bonds between hydroxylic groups but also by electrostatic interaction between negatively charged sulfonate groups on the lower rim and partially-positively charged meglumine groups on the upper rim. The change of optical density at 500 nm with increasing GCR-1 concentration has a nonlinear character (Figure 3b). The linear dependence breaks after 10 mM that correlates well with the CAC obtained by conductometry and tensiometry, and this violation of Lambert-Beer law is due to formation of GCR-1 aggregates in solution.
Dependence of GCR-2 at 500 nm on its concentration also loses linearity at higher 7.2 mM (Figure 3b). This is because the dissolved molecules of GCR-2 aggregate that confirms by conductometry and tensiometry. The obtained values of the correlation coefficients r^2 calculated for both calixarenes in a wide concentration range depict that GCR-2 has a greater ability to aggregate than GCR-1. […] Probably, the short methyl groups fail to form a nonpolar core capable of incorporating hydrophobic guests. Thus, the cooperative effect of hydrogen bonds and π-stacking between GCR-2 molecules contribute to formation of compact aggregates incapable to solubilization of hydrophobic molecules. […]

[3] = Dynamic light scattering, hydrodynamic diameter; format: physicochemical; settings: water
[4] = Zeta potential by electrophoretic light scattering; format: physicochemical; settings: water solution, 25 °C; GCR-2 in the presence of two-fold excess MG; concentration not given
Method: Formation of aggregates with increasing GCR-1 concentration was confirmed by the DLS method. In aqueous 1 mM GCR-1 solutions the formation of small particles with hydrodynamic diameter of 2.9 nm was observed (Figure 4a). This size is much more similar to that of a single molecule that to that of an aggregate. However, the bimodal distribution with peaks at 120 nm and 504 nm occurs for solution with 50 mM GCR-1. This could be attributed to the formation different stacked structures by head-to-head or head-to-tail interaction between GCR-1 molecules. […] Zeta-potential of GCR-1 aggregates obtained by electrophoretic light scattering in solution was −56.8 mV that correspond to sufficiently stable systems. Negative value was caused by dissociation of sulfonate groups of GCR-1 lower rim in aqueous medium. To confirm the morphology and dimension of the GCR-1 aggregates, TEM image was recorded (Figure 5a), where it was shown that GCR-1 molecules were assembled into non-well-defined large nanoparticles. The probable reason for such high polydispersity is multiple supramolecular interactions, such as Coulombic interactions between oppositely charged rims through head-to-tail self-assembly, hydrogen bonding between hydroxyl groups by head-to-head joining and π-π stacking between aromatic units of neighboring macrocycles (Figure 6a). […]

[5] = tested on: S. aureus 209P; assay: Bactericidal activity (MBC); format: cell-based; settings: Staphylococcus aureus, read-out: Minimal Bactericidal Concentration (MBC)
Method: (§1) In vitro bacteriostatic and fungistatic activities of the macrocycles were evaluated against pathogenic representatives of Gram-positive bacteria (Staphylococcus aureus 209p, Bacillus cereus 8035), Gram-negative bacteria (Pseudomonas aeruginosa 9027, Escherichia coli F-50), and yeast (Trichophyton mentagrophytes var. gypseum 1773, Aspergillus niger BKMF-1119, Candida albicans 885–653). Minimal inhibitory concentrations (MICs) were estimated by conventional dilution methods for bacteria and fungi. The antibacterial and antifungal assays were performed in Hottinger broth (HiMe-dia Laboratories Pvt. Ltd. Mumbai, India) and Sabouraud dextrose broth (HiMedia Laboratories Pvt. Ltd.) (bacteria 3 × 10^5 cfu/mL and yeast 2 × 10^4 cfu/mL). The bactericidal and fungicidal activities were determined as described earlier. The tests were repeated three times.

[6] = tested on: B. cereus 8035; assay: Bactericidal activity (MBC); format: cell-based; settings: Bacillus cereus; B. cereus 8035, bactericidal activity; read-out: Minimal Bactericidal Concentration (MBC)
Method: as §1

CC1c2cc(c(O)c(CN(C)C[C@@H](O)[C@H](O)[C@@H](O)[C@@H](O)CO)c2O)C(C)c2cc(c(O)c(CN(C)C[C@@H](O)[C@H](O)[C@@H](O)[C@@H](O)CO)c2O)C(C)c2cc(c(O)c(CN(C)C[C@@H](O)[C@H](O)[C@@H](O)[C@@H](O)CO)c2O)C(C)c2cc1c(O)c(CN(C)C[C@@H](O)[C@H](O)[C@@H](O)[C@@H](O)CO)c2O (stereo partly drawn) [GCR-2, N-methyl-D-glucaminemethyl methylcalix[4]resorcinarene]
melting point: > 350 °C | hemolysis at 1 h, 0.125 mM ([1]; concentration 0.125 mM): 21.3 ± 1.7% | hemolysis at 1 h, 0.25 mM ([1]; concentration 0.25 mM): 31.6 ± 2.7% | hemolysis at 1 h, 0.5 mM ([1]; concentration 0.50 mM): 38.1 ± 3.4% | CAC, UV spectroscopy (loss of linearity of absorption at 500 nm) [2]: 7.2 mM | Hydrodynamic diameter ([3]; 15 mM GCR-2–30 mM MG mixed system): 3.8 nm | Hydrodynamic diameter ([3]; mixed 1 mM GCR-2–2 mM MG system): 2 nm | Zeta-potential of aggregates [4]: −17.4 mV | MBC [5]: 1000 ± 80 µM (≈ 1370 µg/mL) | MBC [6]: > 1000 µM
